US10300130B2, “Cytomegalovirus vaccines and methods of production” (The Trustees of Princeton University, priority 2007, dated 2019)

Key:
BADrUL131 = assay: Dependence of infection on endosome acidification (IE1-positive ARPE-19 cells), BADrUL131; assay type: cell-based, HCMV; settings: 1 h pretreatment, 1 pfu/cell, IE1 16 h later
Protocol: (§1) FIGS. 3A-3B. Effects of inhibitors of endosome acidification and virion source on HCMV entry into ARPE-19 cells. Experiments were performed in triplicate, and the number of positive cells in drug-treated relative to untreated cultures is reported. FIG. 3A: Cells were pretreated with NH4Cl or BFA for 1 h, inoculated with epiBADrUL131 or fibroBADrUL131 (1 pfu/cell) and stained for IE 1 16 h later. FIG. 3B: Cells were pretreated with 50 mM NH4Cl or 40 nM BFA for 1 h, and then inoculated with BADrUL131 (0.1 pfu/cell) or FIXwt (0.01 pfu/cell) produced in the indicated cell types and stained for IE1 16 h later.
(§2) ARPE-19 cells were pretreated with NH4Cl or Bafilomycin A1 (BFA) (Sigma) for 1 h at 37° C., followed by infection in the continued presence of the inhibitor. 16 h later, cultures were fixed in 2% paraformaldehyde and permeabilized with 0.1% Triton X-100. IE1 was identified by immunofluorescence using monoclonal antibody IB12 (21) plus Alexa 546-conjugated secondary antibody and nuclei were stained with DAPI. Inhibition was calculated as the percentage of IE1-expressing drug-treated relative to untreated cells.
Many viruses that enter cells by endocytosis (1, 4, 10) require acidification of endosomes for the virion envelope to fuse with the endosomal membrane and release the capsid into the cytoplasm. NH4Cl. which buffers endosomal pH, and bafilomycin A1 (BFA), which blocks the endosomal ATPase proton pump, were tested for their effect on infection of ARPE-19 cells. After pretreatment with either agent, cells were infected and cultured in drug containing medium for a further 16 h. Successful infections were scored by assaying for IE1-positive cells.

BFXwt = assay: Dependence of infection on endosome acidification (IE1-positive ARPE-19 cells), BFXwt; assay type: cell-based, HCMV; settings: 50 mM NH4Cl or 40 nM BFA, 0.01 pfu/cell
Protocol: as §1, §2
The effect of endosomal pH on entry of the BFXwt clinical isolate into ARPE-19 cells was also assayed (FIG. 3B. right panel).

| Compound | effect of pretreatment on epiBADrUL131 infection (IE1-positive cells) (BADrUL131) | effect of pretreatment on fibroBADrUL131 infection (IE1 expression) (BADrUL131) | effect on number of IE1-positive ARPE-19 cells, epithelial cell-derived BFXwt (BFXwt) | effect on number of IE1-positive ARPE-19 cells, fibroblast-generated BFXwt (BFXwt) |
| --- | --- | --- | --- | --- |
| CO/C1=C\C(C)=C\[C@@H](C)[C@@H](O)[C@@H](C)C/C(C)=C/C=C/[C@H](OC)[C@@H]([C@@H](C)[C@@H](O)[C@H](C)[C@@]2(O)C[C@@H](O)[C@H](C)[C@@H](C(C)C)O2)OC1=O [BFA, Bafilomycin A1] | only a modest effect | inhibited IE1 expression | only a slight inhibition | significantly reduced |
| Cl.N [NH4Cl] | only a modest effect | inhibited IE1 expression | only a slight inhibition | significantly reduced |
